We go through ten molecules from publication PMC6328375 (Molecular pharmaceutics, 2017).

The structures appear in SMILES notation. Several values for one entry are separate records, joined by “and”; a condition that tells them apart may be missing. Equal entries are not always repeated. Structures can show the parent of a compound that is named as a salt. A value given as a limit tells only on which side of the number the result lay.

Data set [1] deals with T1, OCT1 (Homo sapiens, UniProt O15245).
T1 sequence (O15245 1-554): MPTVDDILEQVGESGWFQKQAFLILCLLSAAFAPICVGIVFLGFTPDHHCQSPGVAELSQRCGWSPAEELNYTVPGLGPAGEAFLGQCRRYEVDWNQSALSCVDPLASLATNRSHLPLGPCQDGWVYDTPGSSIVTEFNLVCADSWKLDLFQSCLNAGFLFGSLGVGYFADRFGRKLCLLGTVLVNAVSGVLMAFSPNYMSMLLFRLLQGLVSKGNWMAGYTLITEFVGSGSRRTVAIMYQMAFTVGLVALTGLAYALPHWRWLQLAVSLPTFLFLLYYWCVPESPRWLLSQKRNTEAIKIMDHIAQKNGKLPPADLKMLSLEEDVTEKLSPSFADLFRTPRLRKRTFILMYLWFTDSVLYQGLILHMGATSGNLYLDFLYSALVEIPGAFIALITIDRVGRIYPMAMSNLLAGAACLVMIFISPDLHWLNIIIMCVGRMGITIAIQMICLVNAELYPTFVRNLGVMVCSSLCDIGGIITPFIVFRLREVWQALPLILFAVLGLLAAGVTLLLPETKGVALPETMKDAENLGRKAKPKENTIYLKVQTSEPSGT
In words: Inhibition of [14C]-metformin uptake in HEK293 cells expressing OCT1. The format is cell-based.

In the next data set the target is T2, OCT3 (Homo sapiens, UniProt O75751).
T2 sequence (O75751 1-556): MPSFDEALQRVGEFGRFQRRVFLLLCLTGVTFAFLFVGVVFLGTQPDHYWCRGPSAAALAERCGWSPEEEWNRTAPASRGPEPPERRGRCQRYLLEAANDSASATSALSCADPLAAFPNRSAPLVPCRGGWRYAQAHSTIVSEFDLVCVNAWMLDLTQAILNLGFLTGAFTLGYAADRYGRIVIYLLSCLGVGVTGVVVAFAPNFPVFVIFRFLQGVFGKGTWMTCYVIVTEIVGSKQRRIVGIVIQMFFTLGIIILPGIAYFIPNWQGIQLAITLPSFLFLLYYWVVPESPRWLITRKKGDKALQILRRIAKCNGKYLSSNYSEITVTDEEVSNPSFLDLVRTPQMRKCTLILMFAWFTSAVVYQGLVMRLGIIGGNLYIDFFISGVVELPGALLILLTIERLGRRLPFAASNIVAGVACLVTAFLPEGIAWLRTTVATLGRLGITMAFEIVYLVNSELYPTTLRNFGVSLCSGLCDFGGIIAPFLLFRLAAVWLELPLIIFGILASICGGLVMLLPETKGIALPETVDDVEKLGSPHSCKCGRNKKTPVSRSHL
In words: Uptake in HEK293 cells stably overexpressing OCT3. Type of data set: in vitro ADME. Conditions: 100 μM.

For data set [2], the target named is T3, OCT2 (Homo sapiens, UniProt O15244).
T3 sequence (O15244 1-555): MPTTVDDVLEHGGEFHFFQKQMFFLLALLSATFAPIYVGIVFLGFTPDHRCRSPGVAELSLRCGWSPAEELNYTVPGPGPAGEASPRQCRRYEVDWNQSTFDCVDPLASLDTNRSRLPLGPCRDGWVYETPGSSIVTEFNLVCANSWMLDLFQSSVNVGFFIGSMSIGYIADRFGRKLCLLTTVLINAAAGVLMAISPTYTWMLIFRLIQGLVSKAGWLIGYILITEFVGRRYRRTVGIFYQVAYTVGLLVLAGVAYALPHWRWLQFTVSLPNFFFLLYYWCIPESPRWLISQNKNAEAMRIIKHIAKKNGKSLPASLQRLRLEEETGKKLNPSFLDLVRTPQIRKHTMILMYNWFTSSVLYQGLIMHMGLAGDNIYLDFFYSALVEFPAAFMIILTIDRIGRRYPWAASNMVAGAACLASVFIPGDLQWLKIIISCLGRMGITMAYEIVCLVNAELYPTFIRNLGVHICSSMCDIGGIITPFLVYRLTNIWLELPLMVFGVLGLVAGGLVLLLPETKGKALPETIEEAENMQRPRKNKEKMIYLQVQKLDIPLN
In words: Uptake in HEK293 cells overexpressing OCT2. Type of data set: in vitro ADME. The note with it: for P, OCT2 / Vmax, OCT2 / P (non-saturable clearance parameter), OCT2 / Vmax (maximum uptake rate), OCT2 / Km: HEK293-OCT2, 0.1–1000 μM; for Vmax (maximum uptake rate), OCT2: estimate ± standard error (n = 6); for Km: read-out: Km (Michaelis-Menten constant), OCT2; for Time dependent uptake in HEK-OCT2 cells versus empty vector controls (HEK-P5): 5 μM MPP+ or 50 μM metformin, 1–30 min.

The target in data set [3] is T1, OCT1. In words: Uptake in HEK293 cells overexpressing OCT1. The format is in vitro ADME. The note with it: for P, OCT1 / Vmax, OCT1 / P (non-saturable clearance parameter), OCT1 / Vmax (maximum uptake rate), OCT1 / Km: HEK293-OCT1, 0.1–1000 μM; for Vmax (maximum uptake rate), OCT1: estimate ± standard error (n = 6); for Km: read-out: Km (Michaelis-Menten constant), OCT1; for Time dependent uptake in HEK-OCT1 cells versus empty vector controls (HEK-P5): 5 μM MPP+ or 50 μM metformin, 1–30 min.

Data set [4] deals with T3, OCT2. Conditions: 50 μM compound, 5 μM MPP+, biguanide vs parent amine.
Data set [5] addresses T3, OCT2. In words: Inhibition of [14C]-metformin uptake in HEK293 cells expressing OCT2. Type of data set: cell-based. The note with it: for inhibition at 50 μM: human, HEK293 cells expressing OCT2.
The target of data set [6] is T1, OCT1. In words: Inhibition of [3H]-MPP+ uptake in HEK293 cells expressing OCT1. Conditions: 50 μM compound, 5 μM MPP+, biguanide vs parent amine. Type of data set: cell-based.
The conditions of data set [7]: cited from earlier work.
Where [8] appears, read: 50 μM compound, 50 μM metformin.

For `N=C(N)NC(=N)NCCCc1ccccc1` [2c, 1-(3-Phenylpropyl)-biguanide HCl], on OCT1 [1] (human, HEK293 cells expressing OCT1), the inhibition at 50 μM is at least 50%.
For `N=C(N)NC(=N)NCC(c1ccccc1)c1ccccc1` [2f, 2,2-Diphenylethyl-biguanide], the OCT3 substrate entry at OCT3 is “either none or very weak substrates”. On OCT2 [2], the “P, OCT2” value is 0.6 fl/min/mg protein and the “Vmax, OCT2” value was found to be 1.8 pmol/min/mg protein. Further, at OCT2 [2] (10 min), the “P (non-saturable clearance parameter), OCT2” value is 6e-10 ± 3e-10 µL/min/mg; the “Vmax (maximum uptake rate), OCT2” value is 1.8 ± 0.2 pmol/mg/min; the Km was 12.4 µM and 12 µM. For the same molecule, on OCT1 [3], the “P, OCT1” value came to 1.7 fl/min/mg protein and the “Vmax, OCT1” value was 2.0 pmol/min/mg protein. In addition, at OCT1 [3] (10 min), the “P (non-saturable clearance parameter), OCT1” value was found to be 1.7e-09 ± 2e-10 µL/min/mg; the “Vmax (maximum uptake rate), OCT1” value is listed as 2.0 ± 0.1 pmol/mg/min; the Km was 14.2 µM and 14 µM.
As for `N=C(N)NC(=N)NCCc1ccc(-c2ccccc2)cc1` [2g, 2-(4-Biphenyl)ethyl-biguanide], the “Change of inhibition of OCT2-mediated uptake of MPP+ upon addition of the biguanide moiety” value at OCT2 [4] is given as “less inhibition”.
In turn, `N=C(N)NC(=N)NCCOc1ccccc1` [2h, 1-(2-Phenoxyethyl)-biguanide] registered an inhibition at 50 μM at OCT2 [5] of at least 50%. In addition, the “Change of inhibition of OCT1-mediated uptake of MPP+ upon addition of the biguanide moiety” value at OCT1 [6] is on record as “increased inhibition”.
Turning to `Cl.N=C(N)NC(=N)NC1Cc2ccccc2C1` [2j, 2,3-Dihydro-1H-inden-2-yl-biguanide HCl], the “Inhibition of metformin transport in HEK-OCT2 cells” value at OCT2 [5] (setting [8]) was at least 50%. Further, the OCT3 substrate entry on OCT3 is given as “either none or very weak substrates”. In addition, the “Uptake fold ratio in OCT3 cells” value on OCT3 (single concentration) was “significant increase”. At OCT2 [2], the “P, OCT2” value is 0.1 fl/min/mg protein and the “Vmax, OCT2” value is recorded as 1.1 pmol/min/mg protein. For the same molecule, at OCT2 [2] (10 min), the “P (non-saturable clearance parameter), OCT2” value amounted to 1e-10 ± 5e-11 µL/min/mg; the “Vmax (maximum uptake rate), OCT2” value is 1.1 ± 0.04 pmol/mg/min; the Km is 31.7 µM and 32 µM. For the same molecule, on OCT1 [3], the “P, OCT1” value came out at 0.6 fl/min/mg protein and the “Vmax, OCT1” value is on record as 0.3 pmol/min/mg protein. Further, at OCT1 [3] (10 min), the “P (non-saturable clearance parameter), OCT1” value came to 6e-10 ± 8e-11 µL/min/mg; the “Vmax (maximum uptake rate), OCT1” value is recorded as 0.3 ± 0.05 pmol/mg/min; the Km is 16.9 µM and 17 µM. Besides, on OCT1 [1] (setting [8]), the “Inhibition of metformin transport in HEK-OCT1 cells” value was at least 50%.
Consider `N=C(NN)Nc1ccc(C(=O)O)cc1` [2m, p-(3-Aminoguanidino)-benzoic Acid], for which, on OCT2 [5] (setting [8]), the “Inhibition of OCT2 mediated metformin uptake” value is reported as “only inhibited OCT1”. The “Inhibition of OCT1 mediated metformin uptake” value at OCT1 [1] (setting [8]) is “inhibited”.
For `C[n+]1ccc(-c2ccccc2)cc1` [MPP^+, 1-methyl-4-phenylpyridinium, reference compound], the “Time dependent uptake in HEK-OCT2 cells versus empty vector controls (HEK-P5)” value on OCT2 [2] is “higher”. For the same molecule, the “Time dependent uptake in HEK-OCT1 cells versus empty vector controls (HEK-P5)” value at OCT1 [3] was “higher”.
`CN(C)C(=N)N=C(N)N` [metformin, reference compound]: the “Time dependent uptake in HEK-OCT2 cells versus empty vector controls (HEK-P5)” value at OCT2 [2] was “higher”. On OCT1 [3], the “Time dependent uptake in HEK-OCT1 cells versus empty vector controls (HEK-P5)” value is on record as “higher”.
At OCT2 [5], `[H]/N=C(/N)N/C(=N/[H])NCCc1ccccc1` [phenformin, reference compound] had an inhibition at 50 μM of at least 50%. In addition, the “OCT2 substrate (fold uptake increase of 1.5 and greater over HEK-P5)” value on OCT2 [2] (100 μM, 10 min, HEK-OCT2 vs empty vector) is listed as “substrates”. For the same molecule, the “Change of inhibition of OCT1-mediated uptake of MPP+ upon addition of the biguanide moiety” value at OCT1 [6] is given as “increased inhibition”. For the same molecule, on OCT1 [3] (100 μM, 10 min, HEK-OCT1 vs empty vector), the “OCT1 substrate (fold uptake increase of 1.5 and greater over HEK-P5)” value was “substrates”. Moreover, the “Change of inhibition of OCT2-mediated uptake of MPP+ upon addition of the biguanide moiety” value at OCT2 [4] was “less inhibition”.
For the molecule `CC(C)[C@H](N)C(=O)OCCOCn1cnc2c(=O)[nH]c(N)nc21` [valacyclovir], in data set [7], the Oral bioavailability is listed as 50%.

One may read the inhibition as the change of the read-out against control, counted positive when it falls. In general, Km refers to the substrate concentration at which the rate is half of its maximum.
